Oligonucleotides are written 5' to 3', each unit as a sugar letter and its base; * is a phosphorothioate linkage, no mark a phosphodiester; rarer units and linkages stand in square brackets, end groups in braces. Plain capitals give the bases only. d = 2'-deoxy (DNA); r = 2'-OH (RNA)
Also: test concentration or dose not given here.

The series concerns the target UBE2W. Kind of series: reporter assay of Huesken 2005. The conditions noted are these: siRNA. For orientation: In a reporter assay the amount or activity of a reporter protein is the signal.
“sense rCrUrGrGrUrGrArArArArUrArUrUrCrCrUrGrUdTdT / antisense rArCrArGrGrArArUrArUrUrUrUrCrArCrCrArGdTdA”: the normalised inhibition (eCFP-eYFP dual reporter) stood at 108%.

Regarding “sense rArGrGrUrGrCrArCrCrArGrGrUrArCrCrUrUrAdTdT / antisense rUrArArGrGrUrArCrCrUrGrGrUrGrCrArCrCrUdTdC”, the normalised inhibition (eCFP-eYFP dual reporter) is 93.2%.

With “sense rUrGrUrUrUrArUrCrCrArUrUrCrUrArArCrArGdTdT / antisense rCrUrGrUrUrArGrArArUrGrGrArUrArArArCrAdGdA”, the normalised inhibition (eCFP-eYFP dual reporter) stood at 66.2%.

Consider “sense rCrArArGrGrArArArArGrArGrArCrGrArCrCrAdTdT / antisense rUrGrGrUrCrGrUrCrUrCrUrUrUrUrCrCrUrUrGdCdA”, for which the normalised inhibition (eCFP-eYFP dual reporter) amounted to 110%.

On to “sense rUrCrCrArArUrCrArGrUrUrUrGrUrCrUrUrArGdTdT / antisense rCrUrArArGrArCrArArArCrUrGrArUrUrGrGrAdCdT”, for which the normalised inhibition (eCFP-eYFP dual reporter) turned out to be 85%.

For “sense rUrArCrUrGrGrUrGrArArArArUrArUrUrCrCrUdTdT / antisense rArGrGrArArUrArUrUrUrUrCrArCrCrArGrUrAdAdA”, the normalised inhibition (eCFP-eYFP dual reporter) was determined as 94.4%.

For the substance “sense rUrGrGrUrGrArArArArUrArUrUrCrCrUrGrUrUdTdT / antisense rArArCrArGrGrArArUrArUrUrUrUrCrArCrCrAdGdT”, the normalised inhibition (eCFP-eYFP dual reporter) came to 115%.

Turning to “sense rArGrUrCrGrArUrArUrCrCrUrUrUrUrGrArCrUdTdT / antisense rArGrUrCrArArArArGrGrArUrArUrCrGrArCrUdAdC”, the normalised inhibition (eCFP-eYFP dual reporter) worked out at 81.4%.

As for “sense rCrArCrArGrUrGrGrArUrUrGrUrArGrArCrArUdTdT / antisense rArUrGrUrCrUrArCrArArUrCrCrArCrUrGrUrGdTdA”, the normalised inhibition (eCFP-eYFP dual reporter) stood at 115%.

Consider “sense rArCrUrGrGrUrCrCrCrCrArGrCrGrCrUrCrUrCdTdT / antisense rGrArGrArGrCrGrCrUrGrGrGrGrArCrCrArGrUdCdT”, for which the normalised inhibition (eCFP-eYFP dual reporter) amounted to 93.1%.

Consider “sense rArArUrUrArCrArCrArGrUrGrGrArUrUrGrUrAdTdT / antisense rUrArCrArArUrCrCrArCrUrGrUrGrUrArArUrUdGdA”, for which the normalised inhibition (eCFP-eYFP dual reporter) was 112%.

With “sense rArArCrUrUrCrUrArUrUrUrArArArUrUrUrArGdTdT / antisense rCrUrArArArUrUrUrArArArUrArGrArArGrUrUdGdA”, the normalised inhibition (eCFP-eYFP dual reporter) came out at 96.1%.

Regarding “sense rUrCrArUrCrCrUrCrArUrGrUrUrUrArUrArGrCdTdT / antisense rGrCrUrArUrArArArCrArUrGrArGrGrArUrGrAdAdC”, the normalised inhibition (eCFP-eYFP dual reporter) worked out at 78.8%.

For the substance “sense rArArGrArGrUrGrUrUrCrArArArArUrUrCrArAdTdT / antisense rUrUrGrArArUrUrUrUrGrArArCrArCrUrCrUrUdCdT”, the normalised inhibition (eCFP-eYFP dual reporter) was found to be 114%.

Take “sense rCrUrUrUrCrCrArGrCrUrGrCrArArGrGrArArAdTdT / antisense rUrUrUrCrCrUrUrGrCrArGrCrUrGrGrArArArGdCdA”: the normalised inhibition (eCFP-eYFP dual reporter) came to 103%.

Take “sense rGrArGrArArGrArGrUrGrUrUrCrArArArArUrUdTdT / antisense rArArUrUrUrUrGrArArCrArCrUrCrUrUrCrUrCdAdT”: the normalised inhibition (eCFP-eYFP dual reporter) turned out to be 116%.

With “sense rUrCrCrUrGrUrUrCrArUrCrCrUrCrArUrGrUrUdTdT / antisense rArArCrArUrGrArGrGrArUrGrArArCrArGrGrAdAdT”, the normalised inhibition (eCFP-eYFP dual reporter) was determined as 108%.

Take “sense rUrUrUrArCrUrGrGrUrGrArArArArUrArUrUrCdTdT / antisense rGrArArUrArUrUrUrUrCrArCrCrArGrUrArArAdCdA”: the normalised inhibition (eCFP-eYFP dual reporter) is 91.2%.

For “sense rArGrArGrUrGrUrUrCrArArArArUrUrCrArArUdTdT / antisense rArUrUrGrArArUrUrUrUrGrArArCrArCrUrCrUdTdC”, the normalised inhibition (eCFP-eYFP dual reporter) came to 109%.

“sense rGrUrUrCrArUrCrCrUrCrArUrGrUrUrUrArUrAdTdT / antisense rUrArUrArArArCrArUrGrArGrGrArUrGrArArCdAdG”: the normalised inhibition (eCFP-eYFP dual reporter) amounted to 105%.

For the substance “sense rUrGrCrUrUrUrCrCrArGrCrUrGrCrArArGrGrAdTdT / antisense rUrCrCrUrUrGrCrArGrCrUrGrGrArArArGrCrAdTdG”, the normalised inhibition (eCFP-eYFP dual reporter) turned out to be 110%.

As to “sense rGrGrUrCrArUrGrUrUrUrArCrUrGrGrUrGrArAdTdT / antisense rUrUrCrArCrCrArGrUrArArArCrArUrGrArCrCdTdG”, the normalised inhibition (eCFP-eYFP dual reporter) worked out at 103%.

Regarding “sense rArGrArArUrCrCrArArArGrArArArArCrArArAdTdT / antisense rUrUrUrGrUrUrUrUrCrUrUrUrGrGrArUrUrCrUdTdG”, the normalised inhibition (eCFP-eYFP dual reporter) is 106%.

In the case of “sense rGrUrGrCrGrArArCrArUrGrUrArArCrArArGrAdTdT / antisense rUrCrUrUrGrUrUrArCrArUrGrUrUrCrGrCrArCdAdT”, the normalised inhibition (eCFP-eYFP dual reporter) amounted to 125%.

With “sense rArArArArUrUrCrArArUrUrArCrArCrArGrUrGdTdT / antisense rCrArCrUrGrUrGrUrArArUrUrGrArArUrUrUrUdGdA”, the normalised inhibition (eCFP-eYFP dual reporter) came to 76.8%.

Turning to “sense rArUrUrArGrCrArUrGrCrUrUrUrCrCrArGrCrUdTdT / antisense rArGrCrUrGrGrArArArGrCrArUrGrCrUrArArUdAdA”, the normalised inhibition (eCFP-eYFP dual reporter) came out at 67.5%.

Regarding “sense rArUrGrUrUrUrArUrArGrCrArArUrGrGrUrCrAdTdT / antisense rUrGrArCrCrArUrUrGrCrUrArUrArArArCrArUdGdA”, the normalised inhibition (eCFP-eYFP dual reporter) was 96.2%.

As for “sense rArUrCrUrGrUrUrUrArUrCrCrArUrUrCrUrArAdTdT / antisense rUrUrArGrArArUrGrGrArUrArArArCrArGrArUdAdT”, the normalised inhibition (eCFP-eYFP dual reporter) came out at 96.6%.

“sense rArArUrUrUrCrArArCrUrUrCrUrArUrUrUrArAdTdT / antisense rUrUrArArArUrArGrArArGrUrUrGrArArArUrUdTdT”: the normalised inhibition (eCFP-eYFP dual reporter) is 97.5%.

On to “sense rUrArArCrArArGrArArUrCrCrArArArGrArArAdTdT / antisense rUrUrUrCrUrUrUrGrGrArUrUrCrUrUrGrUrUrAdCdA”, for which the normalised inhibition (eCFP-eYFP dual reporter) was determined as 115%.

For “sense rUrCrCrArUrUrCrUrArArCrArGrArArGrArCrUdTdT / antisense rArGrUrCrUrUrCrUrGrUrUrArGrArArUrGrGrAdTdA”, the normalised inhibition (eCFP-eYFP dual reporter) came out at 64.1%.

As for “sense rCrCrUrCrCrUrGrGrArArUrGrArCrCrUrUrArAdTdT / antisense rUrUrArArGrGrUrCrArUrUrCrCrArGrGrArGrGdTdG”, the normalised inhibition (eCFP-eYFP dual reporter) amounted to 99.3%.

As to “sense rArGrCrArUrUrArUrUrArGrCrArUrGrCrUrUrUdTdT / antisense rArArArGrCrArUrGrCrUrArArUrArArUrGrCrUdAdA”, the normalised inhibition (eCFP-eYFP dual reporter) amounted to 84.8%.

On to “sense rUrUrCrCrUrGrUrUrCrArUrCrCrUrCrArUrGrUdTdT / antisense rArCrArUrGrArGrGrArUrGrArArCrArGrGrArAdTdA”, for which the normalised inhibition (eCFP-eYFP dual reporter) worked out at 73%.

Consider “sense rCrArGrUrCrCrArArUrCrArGrUrUrUrGrUrCrUdTdT / antisense rArGrArCrArArArCrUrGrArUrUrGrGrArCrUrGdAdG”, for which the normalised inhibition (eCFP-eYFP dual reporter) worked out at 122%.

For the substance “sense rUrUrUrUrGrArCrUrCrUrCrCrUrCrArGrGrUrCdTdT / antisense rGrArCrCrUrGrArGrGrArGrArGrUrCrArArArAdGdG”, the normalised inhibition (eCFP-eYFP dual reporter) amounted to 95%.

“sense rArUrGrGrArArGrGrUrGrCrArCrCrArGrGrUrAdTdT / antisense rUrArCrCrUrGrGrUrGrCrArCrCrUrUrCrCrArUdGdT”: the normalised inhibition (eCFP-eYFP dual reporter) was determined as 86.1%.

Turning to “sense rUrGrCrGrArArCrArUrGrUrArArCrArArGrArAdTdT / antisense rUrUrCrUrUrGrUrUrArCrArUrGrUrUrCrGrCrAdCdA”, the normalised inhibition (eCFP-eYFP dual reporter) came out at 104%.

Regarding “sense rArUrGrUrGrCrGrArArCrArUrGrUrArArCrArAdTdT / antisense rUrUrGrUrUrArCrArUrGrUrUrCrGrCrArCrArUdAdA”, the normalised inhibition (eCFP-eYFP dual reporter) was found to be 88.7%.

Take “sense rCrCrArArArGrArArArArCrArArArArUrGrGrUdTdT / antisense rArCrCrArUrUrUrUrGrUrUrUrUrCrUrUrUrGrGdAdT”: the normalised inhibition (eCFP-eYFP dual reporter) is 101%.

In the case of “sense rUrUrArArArUrUrUrArGrUrArGrUrCrGrArUrAdTdT / antisense rUrArUrCrGrArCrUrArCrUrArArArUrUrUrArAdAdT”, the normalised inhibition (eCFP-eYFP dual reporter) amounted to 79.9%.

On to “sense rArCrArCrArGrUrGrGrArUrUrGrUrArGrArCrAdTdT / antisense rUrGrUrCrUrArCrArArUrCrCrArCrUrGrUrGrUdAdA”, for which the normalised inhibition (eCFP-eYFP dual reporter) turned out to be 99.3%.

On to “sense rCrArUrUrArUrUrArGrCrArUrGrCrUrUrUrCrCdTdT / antisense rGrGrArArArGrCrArUrGrCrUrArArUrArArUrGdCdT”, for which the normalised inhibition (eCFP-eYFP dual reporter) was 93.2%.

As for “sense rCrUrArUrUrUrArArArUrUrUrArGrUrArGrUrCdTdT / antisense rGrArCrUrArCrUrArArArUrUrUrArArArUrArGdAdA”, the normalised inhibition (eCFP-eYFP dual reporter) worked out at 83.5%.

For the substance “sense rUrArCrCrUrUrArUrArUrGrArArGrGrGrGrArAdTdT / antisense rUrUrCrCrCrCrUrUrCrArUrArUrArArGrGrUrAdCdC”, the normalised inhibition (eCFP-eYFP dual reporter) was 111%.

Take “sense rUrArArCrArGrArArGrArCrUrGrGrUrCrCrCrCdTdT / antisense rGrGrGrGrArCrCrArGrUrCrUrUrCrUrGrUrUrAdGdA”: the normalised inhibition (eCFP-eYFP dual reporter) came to 64.7%.

For the substance “sense rUrGrArCrCrUrUrArArArUrGrArGrArArGrArGdTdT / antisense rCrUrCrUrUrCrUrCrArUrUrUrArArGrGrUrCrAdTdT”, the normalised inhibition (eCFP-eYFP dual reporter) amounted to 75%.

“sense rUrCrGrArUrArUrCrCrUrUrUrUrGrArCrUrCrUdTdT / antisense rArGrArGrUrCrArArArArGrGrArUrArUrCrGrAdCdT”: the normalised inhibition (eCFP-eYFP dual reporter) was 74.7%.

On to “sense rArUrGrArCrCrUrUrArArArUrGrArGrArArGrAdTdT / antisense rUrCrUrUrCrUrCrArUrUrUrArArGrGrUrCrArUdTdC”, for which the normalised inhibition (eCFP-eYFP dual reporter) is 68.9%.

The record behind these values is the OligoGym collection.
